Like-named read-outs stand apart in the source and are kept apart here.
What was measured:
[1] = system: A-549; assay: Cytotoxic activity IC50, A-549; conditions: Homo sapiens, A549, read-out: CYTOTOXIC ACTIVITIY IC50 (μM) A-549
[2] = system: P-388; assay: Cytotoxic activity IC50, P-388; conditions: Mus musculus, P388, read-out: CYTOTOXIC ACTIVITIY IC50 (μM) P-388
[3] = system: DU-145; assay: Cytotoxic activity IC50, DU-145; conditions: Homo sapiens, DU-145, read-out: CYTOTOXIC ACTIVITIY IC50 (μM) DU-145
[4] = Cytotoxic activity IC50, CV-1; conditions: African green monkey, CV-1 cells
[5] = system: HT-29; assay: Cytotoxic activity IC50, HT-29; conditions: Homo sapiens, HT-29, read-out: CYTOTOXIC ACTIVITIY IC50 (μM) HT-29
[6] = system: MEL-28; assay: Cytotoxic activity IC50, MEL-28; conditions: Homo sapiens, SK-MEL-28, read-out: CYTOTOXIC ACTIVITIY IC50 (μM) MEL-28
[7] = system: 786-O; assay: Cytotoxic activity (M) panel, Renal 786-O; conditions: Homo sapiens, 786-0, read-out: CYTOTOXIC ACTIVITY (M) 786-O
[8] = system: SW-694; assay: Cytotoxic activity (M) panel, Fibrosarcoma SW-694; conditions: read-out: CYTOTOXIC ACTIVITY (M) SW-694
[9] = system: Y-79; assay: Cytotoxic activity (M) panel, Retinoblastoma Y-79; conditions: Homo sapiens, Y79, read-out: CYTOTOXIC ACTIVITY (M) Y-79
[10] = system: MEL-28; assay: Cytotoxic activity (M) panel, Melanoma Mel-28; conditions: Homo sapiens, SK-MEL-28, read-out: CYTOTOXIC ACTIVITY (M) Mel-28
[11] = system: MX-1; assay: Cytotoxic activity (M) panel, Breast MX-1; conditions: Homo sapiens, MX1, read-out: CYTOTOXIC ACTIVITY (M) MX-1
[12] = system: Hs746t; assay: Cytotoxic activity (M) panel, Gastric Hs746t; conditions: Homo sapiens, read-out: CYTOTOXIC ACTIVITY (M) Hs746t
[13] = system: NCI-H187
[14] = system: HT-29; assay: Cytotoxic activity (M) panel, Colon HT-29; conditions: Homo sapiens, HT-29, read-out: CYTOTOXIC ACTIVITY (M) HT-29
[15] = system: PC3; assay: Cytotoxic activity (M) panel, Prostate PC3; conditions: Homo sapiens, PC-3, read-out: CYTOTOXIC ACTIVITY (M) PC3
[16] = system: SK-HEP-1; assay: Cytotoxic activity (M) panel, Liver SK-HEP-1; conditions: Homo sapiens, SK-HEP1, read-out: CYTOTOXIC ACTIVITY (M) SK-HEP-1
[17] = system: DU-145; assay: Cytotoxic activity (M) panel, Prostate DU-145; conditions: Homo sapiens, DU-145, read-out: CYTOTOXIC ACTIVITY (M) DU-145
[18] = system: SK-OV-3; assay: Cytotoxic activity (M) panel, Ovary SK-OV-3; conditions: Homo sapiens, SK-OV-3, read-out: CYTOTOXIC ACTIVITY (M) SK-OV-3
[19] = system: FADU; assay: Cytotoxic activity (M) panel, Pharnynx FADU; conditions: Homo sapiens, read-out: CYTOTOXIC ACTIVITY (M) FADU
[20] = system: CHSA; assay: Cytotoxic activity (M) panel, Chondrosarcoma CHSA; conditions: read-out: CYTOTOXIC ACTIVITY (M) CHSA
[21] = system: PANC-1; assay: Cytotoxic activity (M) panel, Pancreas PANC-1; conditions: Homo sapiens, PANC-1, read-out: CYTOTOXIC ACTIVITY (M) PANC-1
[22] = system: OSA-FH; assay: Cytotoxic activity (M) panel, Osteosarcoma OSA-FH; conditions: read-out: CYTOTOXIC ACTIVITY (M) OSA-FH
[23] = system: 5637; assay: Cytotoxic activity (M) panel, Bladder 5637; conditions: read-out: CYTOTOXIC ACTIVITY (M) 5637
[24] = system: LNCAP; assay: Cytotoxic activity (M) panel, Prostate LNCAP; conditions: Homo sapiens, read-out: CYTOTOXIC ACTIVITY (M) LNCAP
[25] = system: K562; assay: cells; conditions: Homo sapiens, K562, read-out: CYTOTOXIC ACTIVITY (M) K562
[26] = system: H9; assay: cells; conditions: Homo sapiens, H9, read-out: CYTOTOXIC ACTIVITY (M) H9, leukemias & lymphomas, Lymphoma T-cell, line H9
[27] = system: MC116; conditions: human
[28] = system: HL60; conditions: human
[29] = system: RAMOS; conditions: human
[30] = system: Hut 78; conditions: human
[31] = system: Molt 3; conditions: human
[32] = system: H9
[33] = system: RAMOS; assay: cells; conditions: Homo sapiens, read-out: CYTOTOXIC ACTIVITY (M) RAMOS, leukemias & lymphomas, Lymphoma Burkitts B celll, line RAMOS
[34] = system: HL60; assay: cells; conditions: Homo sapiens, HL-60, read-out: CYTOTOXIC ACTIVITY (M) HL60, leukemias & lymphomas, ALL Promyelocytic leukemia, line HL60
[35] = system: Molt 3; assay: Cytotoxic activity (M) panel, Acute lymphoblastic Molt 3; conditions: Homo sapiens, MOLT-3, read-out: CYTOTOXIC ACTIVITY (M) Molt 3, leukemias & lymphomas, ALL Acute lymphoblastic, line Molt 3
[36] = system: MC116; assay: Cytotoxic activity (M) panel, Lymphoma undifferentiated MC116; conditions: Homo sapiens, MC116, read-out: CYTOTOXIC ACTIVITY (M) MC116, leukemias & lymphomas, Lymphoma undifferentiated, line MC116
[37] = background statement, no test described; cited from earlier work
[38] = system: 5637
[39] = system: PC3
[40] = system: NCI-H187; assay: Cytotoxic activity (M) panel, SCL NCI-H187; conditions: Homo sapiens, NCI-H187, read-out: CYTOTOXIC ACTIVITY (M) NCI-H187
[41] = system: OSA-FH

## COCOc1c(OC)c(C)cc2c1[C@@H]1C3Cc4c(OC(=O)C(F)(F)C(F)(F)C(F)(F)F)c(C)c5c(c4[C@H](CNC(=O)CCc4ccccc4)N3[C@@H](C#N)[C@H](C2)N1C)OCO5 (some centres unmarked)
[1]
  IC50: 0.5 µM
[2]
  IC50: 0.5 µM
[3]
  IC50: 0.5 µM
[4]
  IC50: 500 nM
[5]
  IC50: 0.5 µM
[6]
  IC50: 0.5 µM

## COc1c(C)cc2c(c1O)[C@@H]1C3Cc4c(OC(C)=O)c(C)c5c(c4[C@H](CNC(=O)/C=C/c4ccccc4)N3[C@@H](O)[C@H](C2)N1C)OCO5 (some centres unmarked) [drawing 213]
[7]
  IC50: 1.72e-09 M
[8]
  IC50: 1.39e-06 M
[9]
  IC50: 8.85e-11 M
[10]
  IC50: 2.18e-09 M
[11]
  IC50: 2.38e-09 M
[12]
  IC50: 7.1e-11 M
[13]
  IC50: 0.0778 pM
[14]
  IC50: 2.12e-09 M
[15]
  IC50: 4.7e-09 M
[16]
  IC50: 3.15e-09 M
[17]
  IC50: 2.22e-09 M
[18]
  IC50: 8.74e-09 M
[19]
  IC50: 3.71e-10 M
[20]
  IC50: 1.39e-09 M
[21]
  IC50: 1.29e-10 M
[22]
  IC50: 1.09e-09 M
[23]
  IC50: 1.91e-10 M
[24]
  IC50: 3.94e-11 M

## COc1c(C)cc2c(c1O)[C@@H]1C3Cc4c(OC(C)=O)c(C)c5c(c4[C@H](COC(=O)/C=C/c4ccccc4)N3[C@@H](O)[C@H](C2)N1C)OCO5 (some centres unmarked) [drawing 238]
[25]
  IC50: 6.13e-08 M
[26]
  IC50: 1.91e-08 M
[27]
  IC50: 6.38 nM
[28]
  IC50: 13.4 nM
[29]
  IC50: 0.715 nM
[30]
  IC50: 7.31 nM
[31]
  IC50: 2.48 nM

## CCC(=O)N[C@@H](C)C(=O)NC[C@H]1c2c(c(OC(C)=O)c(C)c3c2OCO3)CC2[C@H]3c4c(cc(C)c(OC)c4O)C[C@@H]([C@H](O)N21)N3C (some centres unmarked) [drawing 232]
[25]
  IC50: 1.18e-08 M
[32]
  CYTOTOXIC ACTIVITY (M) H9: 2.43 to 08 M
[33]
  IC50: 5.01e-09 M
[34]
  IC50: 7.36e-09 M
[35]
  IC50: 9.86e-10 M
[36]
  IC50: 1.49e-09 M

## COC1=C(C)C(=O)C2=C(C1=O)[C@@H]1[C@@H]3Cc4c(OC(=O)CO)c(C)c(OC)c(O)c4[C@H](CNC(=O)C(C)=O)N3[C@@H](C#N)[C@H](C2)N1C [Saframycin R]
[37]
  toxicity: moderate toxicity

## COc1c(C)cc2c(c1O)[C@@H]1C3Cc4c(OC(C)=O)c(C)c5c(c4[C@H](CNC(=O)Cc4ccccc4)N3[C@@H](O)[C@H](C2)N1C)OCO5 (some centres unmarked) [drawing 217]
[7]
  IC50: 1e-08 M
[9]
  IC50: 7.78e-09 M
[38]
  CYTOTOXIC ACTIVITY (M) 5637: 3.18 to 09 M
[10]
  IC50: 4.48e-09 M
[12]
  IC50: 1.37e-07 M
[16]
  IC50: 9.5e-09 M
[19]
  IC50: 1.14e-09 M
[20]
  IC50: 1.09e-08 M
[21]
  IC50: 1.03e-08 M
[22]
  IC50: 9.5e-09 M

## CCCC(=O)NC[C@H]1c2c(c(OC(C)=O)c(C)c3c2OCO3)CC2[C@H]3c4c(cc(C)c(OC)c4O)C[C@@H]([C@H](O)N21)N3C (some centres unmarked) [drawing 225]
[7]
  IC50: 6.55e-09 M
[9]
  IC50: 3.14e-09 M
[10]
  IC50: 3.05e-08 M
[11]
  IC50: 2.5e-06 M
[12]
  IC50: 2.97e-08 M
[16]
  IC50: 5.07e-09 M
[18]
  IC50: 2.21e-07 M
[19]
  IC50: 7.94e-09 M
[20]
  IC50: 1.73e-08 M
[39]
  CYTOTOXIC ACTIVITY (M) PC3: 1.46-08 M
[21]
  IC50: 2.9e-09 M
[40]
  IC50: 3.98e-11 M
[22]
  IC50: 8.56e-08 M
[23]
  IC50: 2.81e-09 M
[24]
  IC50: 5.39e-09 M

## COc1c(C)cc2c(c1O)[C@@H]1C3Cc4c(OC(C)=O)c(C)c5c(c4[C@H](CNC(=O)[C@H](C)NC(=O)Cc4ccccc4)N3[C@@H](O)[C@H](C2)N1C)OCO5 (some centres unmarked) [drawing 216]
[7]
  IC50: 2.9e-09 M
[9]
  IC50: 1.31e-11 M
[10]
  IC50: 1.13e-09 M
[11]
  IC50: 2.85e-06 M
[12]
  IC50: 6.25e-09 M
[14]
  IC50: 1.2e-10 M
[15]
  IC50: 9.34e-09 M
[16]
  IC50: 9.03e-10 M
[19]
  IC50: 3.77e-08 M
[20]
  IC50: 2.25e-09 M
[21]
  IC50: 2.58e-09 M
[40]
  IC50: 2.07e-12 M
[23]
  IC50: 7.85e-10 M
[41]
  CYTOTOXIC ACTIVITY (M) OSA-FH: 1.35 to 08 M

## COc1c(C)cc2c(c1O)[C@@H]1C3Cc4c(OC(C)=O)c(C)c5c(c4[C@H](COC(=O)/C=C/c4ccccc4)N3[C@@H](O)[C@H](C2)N1C)OCO5 (some centres unmarked) [drawing 239]
[32]; human
  IC50: 21.7 nM
[27]
  IC50: 0.0527 nM
[28]
  IC50: 3.1 nM
[29]
  IC50: 1.86 nM
[30]
  IC50: 48.1 nM
[31]
  IC50: 0.0869 nM

Source: patent US8012975B2, “Antitumoral analogs of ET-743” (Pharma Mar, S.A., priority 2000, dated 2011)
